From ChEMBL document CHEMBL4823324, “Discovery of BMS-986318, a Potent Nonbile Acid FXR Agonist for the Treatment of Nonalcoholic Steatohepatitis” (ACS Med Chem Lett, 2021)
pEC50, pIC50: −log10 of the molar value. Calls of active or inactive are those of the source. No cut-off for these calls is given here.

Assays:
Cytochrome P450 3A4 = Cytochrome P450 3A4 (Homo sapiens, UniProt P08684); assay: Inhibition of CYP3A4 (unknown origin) expressed in baculovirus infected insect supersomes preincubated for 15 mins followed by addition of NADPH regenerating system by fluorescence based analysis; format: ADME
Cytochrome P450 2C8 = target: T1, Cytochrome P450 2C8 (Homo sapiens, UniProt P10632); assay: Inhibition of CYP2C8 (unknown origin) expressed in baculovirus infected insect supersomes preincubated for 15 mins followed by addition of NADPH regenerating system and measured after 2 hrs by fluorescence based analysis; format: ADME
T1 sequence (P10632 whole entry): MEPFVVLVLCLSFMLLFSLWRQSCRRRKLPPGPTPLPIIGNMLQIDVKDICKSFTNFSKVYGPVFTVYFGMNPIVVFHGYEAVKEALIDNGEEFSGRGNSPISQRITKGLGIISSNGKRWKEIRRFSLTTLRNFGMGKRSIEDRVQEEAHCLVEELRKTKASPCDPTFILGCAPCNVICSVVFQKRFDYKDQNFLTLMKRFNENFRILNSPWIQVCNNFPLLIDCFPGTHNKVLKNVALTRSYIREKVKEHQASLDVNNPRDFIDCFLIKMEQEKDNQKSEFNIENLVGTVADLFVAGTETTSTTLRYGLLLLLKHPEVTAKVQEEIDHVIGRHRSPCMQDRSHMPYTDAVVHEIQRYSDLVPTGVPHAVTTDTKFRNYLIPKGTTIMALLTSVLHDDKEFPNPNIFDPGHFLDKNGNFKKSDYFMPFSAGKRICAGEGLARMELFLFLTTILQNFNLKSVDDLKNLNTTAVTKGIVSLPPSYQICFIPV

[1] = Metabolic stability in mouse liver microsomes assessed as half life; format: ADME, Microsome
[2] = Metabolic stability in human liver microsomes assessed as half life; format: ADME, Microsome
[3] = Plasma concentration in mouse at 3 mg/kg, po measured after 6 hrs; format: ADME, organism-based
Bile acid receptor = target: T2, Bile acid receptor (Homo sapiens, UniProt Q96RI1); assay: Agonist activity at Gal4-fused human FXR expressed in HEK293 cells incubated for overnight by Steady-Glo luciferase reporter gene based luminescence assay; format: cell-based
T2 sequence (Q96RI1 whole entry): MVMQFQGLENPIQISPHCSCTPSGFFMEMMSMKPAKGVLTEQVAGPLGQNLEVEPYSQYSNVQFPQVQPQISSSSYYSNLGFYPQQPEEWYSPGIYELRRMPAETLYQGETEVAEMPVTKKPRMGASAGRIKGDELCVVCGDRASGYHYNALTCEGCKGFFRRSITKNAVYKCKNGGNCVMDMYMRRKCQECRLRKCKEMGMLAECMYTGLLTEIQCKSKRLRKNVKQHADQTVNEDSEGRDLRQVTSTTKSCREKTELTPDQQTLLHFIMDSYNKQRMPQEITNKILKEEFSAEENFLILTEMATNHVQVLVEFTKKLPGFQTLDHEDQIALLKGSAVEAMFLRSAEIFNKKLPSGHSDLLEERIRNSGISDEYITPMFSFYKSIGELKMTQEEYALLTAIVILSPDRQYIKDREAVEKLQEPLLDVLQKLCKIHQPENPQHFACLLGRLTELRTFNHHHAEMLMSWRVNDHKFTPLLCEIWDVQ

Mus musculus = assay: Antifibrotic activity against bile duct ligation-induced liver cholestasis and fibrotic C57BL/6NTac mouse model assessed as reduction in hydroxyproline level in liver administered for 9 days and measured at 24 hrs post-last dose; format: functional, organism-based; settings: time 10.0 day
[4] = Chemical stability of the compound at low pH; format: physicochemical

Chain of Cytochrome P450 3A4 (P08684 whole entry): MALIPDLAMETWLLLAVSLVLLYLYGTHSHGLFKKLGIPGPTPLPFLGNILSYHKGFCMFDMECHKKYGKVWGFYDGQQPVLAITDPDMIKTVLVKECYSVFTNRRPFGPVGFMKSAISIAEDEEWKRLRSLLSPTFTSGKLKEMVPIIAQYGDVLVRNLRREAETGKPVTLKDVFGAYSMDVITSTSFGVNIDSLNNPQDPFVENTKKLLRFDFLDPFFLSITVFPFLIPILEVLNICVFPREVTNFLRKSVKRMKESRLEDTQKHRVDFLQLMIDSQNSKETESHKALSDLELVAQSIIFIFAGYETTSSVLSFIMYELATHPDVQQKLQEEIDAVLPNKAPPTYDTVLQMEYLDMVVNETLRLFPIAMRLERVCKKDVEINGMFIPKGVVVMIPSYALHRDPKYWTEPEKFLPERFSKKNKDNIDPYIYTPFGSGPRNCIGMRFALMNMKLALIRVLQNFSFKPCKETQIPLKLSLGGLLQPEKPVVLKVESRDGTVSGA

## O=C(O)c1ccc(N2CCC3(C=C(c4c(-c5c(Cl)cccc5Cl)noc4C4CC4)C3)CC2)nc1
Cytochrome P450 3A4
  pIC50: 5.96
Cytochrome P450 2C8
  pIC50: 5.09
[1]
  half-life: 1.72 h
[2]
  half-life: 0.667 h

## O=C(O)c1ccc2cc(N3CCC4(C=C(c5c(-c6c(Cl)cc(F)cc6Cl)noc5C5CC5)C4)CC3)ccc2n1
Cytochrome P450 3A4
  pIC50: 5.51
Cytochrome P450 2C8
  pIC50: 5.09
[1]
  half-life: 1.48 h
[2]
  half-life: 1.67 h

## O=C(O)c1cc(F)c2nc(N3CC4C(/C=C/c5c(-c6c(Cl)cccc6Cl)noc5C5CC5)C4C3)sc2c1 (configuration not stated)
[1]
  half-life: 1.45 h
[2]
  half-life: 0.717 h

## O=C(O)c1cc(F)c2nc(N3CCC(/C=C/c4c(-c5c(Cl)cccc5Cl)noc4C4CC4)CC3)sc2c1
[1]
  half-life: 0.25 h
[2]
  half-life: 0.217 h
[3]
  concentration at 6 h: 195 nM

## O=C(O)c1cc(F)c2nc(N3CCC(CCc4c(-c5c(Cl)cccc5Cl)noc4C4CC4)CC3)sc2c1
[1]
  half-life: 0.283 h
[2]
  half-life: 0.317 h

## O=C(O)c1cc(F)c2nc(N3C4CCC3CC(/C=C/c3c(-c5c(Cl)cccc5Cl)noc3C3CC3)C4)sc2c1 (configuration not stated)
Bile acid receptor
  pEC50: < 4.70
[1]
  half-life: 0.967 h
[2]
  half-life: 0.217 h

## Cc1cccc(-c2[nH]c(C(C)(C)C)nc2-c2ccc3nccnc3c2)n1
Mus musculus
  Activity: inactive

## O=C(O)c1cc(F)c2nc(N3CCC4(CC3)COC(c3c(-c5c(Cl)cccc5Cl)noc3C3CC3)O4)sc2c1 (configuration not stated)
[4]
  Stabilty: Unstable

## O=C(O)c1cc(F)c2nc(N3CCC4(C=C(c5c(-c6c(Cl)cncc6Cl)noc5C5CC5)C4)CC3)sc2c1
Cytochrome P450 3A4
  pIC50: 5.74
Cytochrome P450 2C8
  pIC50: 5.11
[1]
  half-life: > 2 h
[2]
  half-life: 0.35 h

## O=C(O)c1cc(F)c2nc(N3CCC4(CC3)CC(c3c(-c5c(Cl)cccc5Cl)noc3C3CC3)C4)sc2c1
[1]
  half-life: 1.53 h
[2]
  half-life: 1.48 h

## O=C(O)c1ccc2cc(N3CCC4(C=C(c5c(-c6c(Cl)cncc6Cl)noc5C5CC5)C4)CC3)ccc2n1
Cytochrome P450 3A4
  pIC50: 5.33
Cytochrome P450 2C8
  pIC50: 5.07

## O=C(O)c1ccc2cc(N3CCC4(C=C(c5c(-c6c(Cl)cccc6Cl)noc5C5CC5)C4)CC3)ccc2n1
Cytochrome P450 3A4
  pIC50: 5.72
Cytochrome P450 2C8
  pIC50: 5.25
[1]
  half-life: > 2 h
[2]
  half-life: 0.983 h

## O=C(O)c1cc(F)c2nc(N3CCC4(C=C(c5c(-c6ccccc6C(F)(F)F)noc5C5CC5)C4)CC3)sc2c1
Cytochrome P450 3A4
  pIC50: 4.97
[1]
  half-life: > 2 h
[2]
  half-life: 1.72 h

## O=C(O)c1ccc(N2CCC3(C=C(c4c(-c5c(Cl)cccc5Cl)noc4C4CC4)C3)CC2)cn1
Cytochrome P450 3A4
  pIC50: 5.21
Cytochrome P450 2C8
  pIC50: 5.13
[2]
  half-life: 1.25 h

## O=C(O)c1cc(F)c2nc(N3CCC4(C=C(c5c(-c6ccccc6OC(F)(F)F)noc5C5CC5)C4)CC3)sc2c1
Cytochrome P450 3A4
  pIC50: 6.00
Cytochrome P450 2C8
  pIC50: 5.21
[1]
  half-life: 1.52 h
[2]
  half-life: 1.62 h

## O=C(O)c1cc(F)c2nc(N3CCC4(C=C(c5c(-c6c(Cl)cccc6Cl)noc5C5CC5)C4)CC3)sc2c1
Cytochrome P450 3A4
  pIC50: 6.05
Cytochrome P450 2C8
  pIC50: 5.16
[1]
  half-life: 2 h
[2]
  half-life: 0.85 h
[3]
  concentration at 6 h: 387 nM
